The source of these data is PubChem BioAssay AID1845211 (Molecular Pharmacology Branch, DTP, NCI, 2023).

“And” between values parts separate entries of the source, which are not always exact repeats. Equal values may be shown once.

For this assay, the system named is NCI-H322M multicellular tumor spheroids, viability (% test/control). Put plainly: Anticancer human tumor NCI-H322M cell line growth inhibition.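 As to viability, T/C: spheroids exposed to compound for seven days before readout; 100% = DMSO vehicle control wells.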 The conditions noted are these: for viability, T/C: stronger effect = lower value. An excerpt: Multicellular complex tumor spheroid response to DNA repair inhibitors in combination with DNA-damaging drugs
This study explores the anticancer activities of DNA-damaging drugs and inhibitors of DNA damage repair, both as single agents and in combinations. Complex tumor spheroids comprised of malignant cells, endothelial cells and mesenchymal stem cells served as an in vitro model for human solid tumors. This model system incorporates physiologically relevant features and patient-derived or established malignant cell lines with clinically relevant genetic alterations from many tumor types. Twenty-six patient-derived or established malignant cell lines were evaluated representing sarcoma, melanoma, small cell lung cancer (SCLC), non-small cell lung cancer (NSCLC), as well as bladder, ovarian and pancreatic cancers. The concentration ranges selected for each drug and investigational agent were based upon clinically achievable concentrations if the clinical Cmax of the agent was known.
Compounds. The drugs and compounds olaparib (NSC753686), talazoparib (NSC767125), berzosertib (NSC777718), elimusertib (NSC800525), nedisertib (NSC802822), VX-984 (NSC792969), AZD-1390 (NSC803789), temozolomide (NSC362856), topotecan (NSC609699), trabectedin (NSC813783), staurosporine (NSC755774), and gemcitabine (NSC613327) were obtained from the National Cancer Institute (NCI) Developmental Therapeutics Program Chemical Repository. The FDA-approved anticancer drug set is available from the Developmental Therapeutics Program at https://dtp.cancer.gov/organization/dscb/obtaining/available_plates.htm. […] The stock solutions were prepared in dimethyl sulfoxide (DMSO, Sigma-Aldrich, St. Louis, MO, cat. D2650) at 400-fold the tested concentration and stored at -70 degrees C. Prior to their use, the stock solutions were diluted in fresh medium and the final DMSO concentration in the assay was 0.25% (v/v). All drugs and investigational agents were tested over a range starting from a high concentration at or near the clinical Cmax and decreasing in half-log increments. If the clinical Cmax for an agent had not been determined, the highest concentration tested was 10 microM.
Cell Lines. The patient-derived cancer cell (PDC) lines: 156681-154-R-J1-PDC, 283228-195-R-J1-PDC, 287954-098-R-J1-PDC, 292921-168-R-J2-PDC, 349418-098-R-PDC, 425362-245-T-J1-PDC, 556581-035-R-J1-PDC, and BL0293-F563-PDC were received from the NCI Patient-Derived Models Repository (PDMR, https://pdmr.cancer.gov). The established cell lines HS-SY-2 (RRID:CVCL_8719), MPNST, and SYO-1 (RRID:CVCL_7146) were obtained from the Sloan Kettering Institute. The alveolar soft parts sarcoma cell line ASPS-1 (RRID:CVCL_S738) was established at the NCI and grown from internal seed stocks. The following established cell lines were purchased from the American Type Culture Collection (ATCC, Manassas, VA): G-401 (ATCC, cat. CRL-1441, RRID:CVCL_0270), SW982 (ATCC, cat. HTB-93, RRID:CVCL_1734), VA-ES-BJ (ATCC, cat. CRL-2138, RRID:CVCL_1785), NCI-H719 (ATCC, cat. CRL-5837, RRID:CVCL_1582), NCI-H196 (ATCC, cat. CRL-5823, RRID:CVCL_1509), NCI-H841 (ATCC, cat. CRL-5845, RRID:CVCL_1595), NCI-H1618 (ATCC, cat. CRL-5879, RRID:CVCL_1480), NCI-H1876 (ATCC, cat. CRL-5902, RRID:CVCL_1503), DMS 114 (ATCC, cat. CRL-2066; RRID:CVCL_1174), NCI-H211 (ATCC, cat. CRL-5824; RRID:CVCL_1529), and SW 1271 (ATCC, cat. CRL-2177, RRID:CVCL_1716). The small cell lung cancer cell line COR-L88 was purchased from Sigma-Aldrich (cat. 92031917-1VL, RRID:CVCL_1141). The non-small cell lung cancer cell lines NCI-H226 (RRID:CVCL_1544) and NCI-H322M (RRID:CVCL_1557) were established at the NCI and grown from internal seed stocks. Pooled donor human umbilical vein endothelial cells (HUVEC, Lonza, cat. CC-2519) and human mesenchymal stem cells (hMSC, Lonza, cat. PT-2501) were purchased from Lonza (Walkersville, MD).
Cell Culture. All cells were maintained in an incubator at 37 degrees C and 5% CO2 with 95% humidity. […]

[1] abbreviates: compound alone, run of 12/12/2019.

Take `CC(C)n1c(=O)n(C)c2cnc3cc(F)c(-c4ccc(OCCCN5CCCCC5)nc4)cc3c21`: the viability, T/C by setting is: (compound 0.0316 µM) 60.1% and 96% and 88.1%; (compound 0.1 µM) 80.2% and 82.2% and 112%; (compound 0.316 µM) 70.4% and 78.7% and 83.2%; (compound 1 µM) 73.2% and 102% and 112%; (compound 3.16 µM) 76.8% and 85.2% and 87.2%; (compound 10 µM) 56.8% and 79.3% and 85%. Also, the IC50 (curve of compound) was over 10000 nM.
As for `CC1COCCN1c1cc(-c2ccnn2C)c2ccnc(-c3ccn[nH]3)c2n1` (centres undefined), the viability, T/C was 53.9% and 67.8% and 58.9% (compound 0.0316 µM); 40.6% and 54% and 49.9% (compound 0.1 µM); 29.4% and 41.8% and 36% (compound 0.316 µM); 29.7% and 35.6% and 33.4% (compound 1 µM); 29.8% and 38.9% and 33.5% (compound 3.16 µM); 32.7% and 44.9% and 37.6% (compound 10 µM). In addition, the IC50 (curve of compound) is 43.1 nM and 144 nM and 71.4 nM.
`CC[C@@]1(O)C(=O)OCc2c1cc1n(c2=O)Cc2cc3c(CN(C)C)c(O)ccc3nc2-1`: the viability, T/C is, setting by setting: (compound 0.003 µM) 89.7% [middle of 10 runs]; (compound 0.0949 µM) 67.4% [middle of 10 runs]; (compound 0.3 µM) 51.5% [middle of 10 runs]. Under setting [1], the IC50 was > 300 nM and 254 nM.
As for `CNCc1ccc(-c2cc(-c3nc(-c4ccc(S(=O)(=O)C(C)C)cc4)cnc3N)on2)cc1`, the viability, T/C reads like this: (compound 0.00949 µM) 101% and 98.9% and 108%; (compound 0.03 µM) 92% and 104% and 77.6%; (compound 0.0949 µM) 86.2% and 90.6% and 82.5%; (compound 0.3 µM) 75.3% and 82.6% and 88.2%; (compound 0.949 µM) 93% and 95.4% and 77.4%; (compound 3 µM) 90.5% and 94.3% and 74.9%. Moreover, where the note is “curve of compound”, the IC50 is over 3000 nM.
`COc1cc(C)[nH]c(=O)c1CN1CCc2c(Cl)cc(C(OC)C3COC3)c(Cl)c2C1=O` (centres undefined): the viability, T/C runs as follows: (compound 0.0316 µM) 104% and 96.2% and 98.2%; (compound 0.1 µM) 87.7% and 103% and 84%; (compound 0.316 µM) 89.9% and 91.7% and 80.2%; (compound 1 µM) 74.3% and 84.4% and 89.6%; (compound 3.16 µM) 93.3% and 91.8% and 102%; (compound 10 µM) 82% and 96.2% and 93.1%. Moreover, where the note is “curve of compound”, the IC50 is over 10000 nM.
As for `COc1cc2c(cc1O)CCNC21CSC2c3c(OC(C)=O)c(C)c4c(c3C(COC1=O)N1C(O)C3Cc5cc(C)c(OC)c(O)c5C(C21)N3C)OCO4` (centres undefined), the viability, T/C by setting is: (compound 94.9 pM) 90.7% [middle of 10 runs]; (compound 0.0003 µM) 90.7% [middle of 10 runs]; (compound 0.003 µM) 7.2% [middle of 10 runs]. Moreover, under setting [1], the IC50 is 1.56 nM [middle of 8 runs].
`COc1ccc([C@@H](O)c2cc(-c3ncnc4cc(N5CCOCC5)ccc34)c(F)cc2Cl)nn1`: the viability, T/C reads like this: (compound 0.0316 µM) 94.5% and 86.9% and 89%; (compound 0.1 µM) 82% and 74.6% and 84.6%; (compound 0.316 µM) 79.5% and 68% and 94.4%; (compound 1 µM) 61.6% and 63.9% and 62.2%; (compound 3.16 µM) 38.2% and 58.7% and 52.9%; (compound 10 µM) 33.5% and 34.7% and 43.3%. Besides, the half-inhibitory concentration (IC50) (curve of compound) is 1820 nM and 3810 nM and 2700 nM.
For `Cc1cc(C)c(CNC(=O)c2cc(-c3ccc(CN4CCOCC4)cc3)cc3c2cnn3C2CCCC2)c(=O)[nH]1`, the viability, T/C reads like this: (compound 0.0316 µM) 93.2% and 96.5% and 81.3%; (compound 0.1 µM) 101% and 84.8% and 89%; (compound 0.316 µM) 90.7% and 96.1% and 79.9%; (compound 1 µM) 101% and 88.8% and 98.1%; (compound 3.16 µM) 96.1% and 117% and 84.2%; (compound 10 µM) 117% and 114% and 102%. Also, the IC50 (curve of compound) was over 10000 nM.
On to `Cc1sc2c(c1C)C(c1ccc(Cl)cc1)=NC(CC(=O)Nc1ccc(O)cc1)c1nnc(C)n1-2` (centres undefined), for which the viability, T/C (compound 0.00949 µM) was 106% and 134% and 101%; the viability, T/C (compound 0.03 µM) is 114% and 110% and 109%; the viability, T/C (compound 0.0949 µM) was 122% and 129% and 130%; the viability, T/C (compound 0.3 µM) was 112% and 114% and 116%; the viability, T/C (compound 0.949 µM) is 86.2% and 95.3% and 76%; the viability, T/C (compound 3 µM) is 75.4% and 80.9% and 64%. For the same compound, the half-inhibitory concentration (IC50) (curve of compound) was over 3000 nM.
As to `Cn1ncnc1[C@H]1c2n[nH]c(=O)c3cc(F)cc(c23)N[C@@H]1c1ccc(F)cc1`, the viability, T/C is 90.1% and 93.2% and 85.8% (compound 0.00949 µM); 88.6% and 91.6% and 90.2% (compound 0.03 µM); 79.9% and 77.7% and 81% (compound 0.0949 µM); 95.3% and 83.4% and 83% (compound 0.3 µM); 81.9% and 79.7% and 75.5% (compound 0.949 µM); 70% and 66.2% and 68.7% (compound 3 µM). Besides, the IC50 (curve of compound) was over 3000 nM.
Take `Cn1nnc2c(C(N)=O)ncn2c1=O`: the IC50 (compound alone, run of 12/02/2019) was over 100000 nM.
In the case of `O=C(c1cc(Cc2n[nH]c(=O)c3ccccc23)ccc1F)N1CCN(C(=O)C2CC2)CC1`, the viability, T/C was 107% and 88% and 75.1% (compound 0.0949 µM); 98.5% and 83.7% and 107% (compound 0.3 µM); 118% and 98.6% and 101% (compound 0.949 µM); 97.2% and 80.6% and 97.6% (compound 3 µM); 97% and 89.6% and 92.4% (compound 9.49 µM); 103% and 87% and 104% (compound 30 µM). Moreover, the IC50 (curve of compound) was over 30000 nM.
For `[2H]c1nc(C)nc([2H])c1-c1cc(NC[C@@H](C)c2cccc3c(C(=O)NC)ccnc23)ncn1`, the viability, T/C was 78.5% and 92.3% and 103% (compound 0.0316 µM); 84.9% and 85.2% and 114% (compound 0.1 µM); 81% and 104% and 97.4% (compound 0.316 µM); 85.9% and 101% (2×) (compound 1 µM); 84.4% and 87.3% and 106% (compound 3.16 µM); 88.4% and 85.9% and 108% (compound 10 µM). Further, under “curve of compound”, the IC50 is over 10000 nM.

The viability, T/C is the result in the treated group divided by that in the control group, in per cent. One may read the IC50 as the midpoint of a concentration-inhibition curve.
